{"source": "the kinase profiling compilation of Christmann-Franck et al. (2016)", "test_in_all_cases": "KINOMEscan competition binding", "details_in_all_cases": "compound 10.0 µM", "key": {"[1]": {"test_system": "ABL1 (human), P00519 [M351T]"}, "[2]": {"target": "ABL2 (human) (UniProt P42684)", "sequence (P42684 whole entry, looked up)": "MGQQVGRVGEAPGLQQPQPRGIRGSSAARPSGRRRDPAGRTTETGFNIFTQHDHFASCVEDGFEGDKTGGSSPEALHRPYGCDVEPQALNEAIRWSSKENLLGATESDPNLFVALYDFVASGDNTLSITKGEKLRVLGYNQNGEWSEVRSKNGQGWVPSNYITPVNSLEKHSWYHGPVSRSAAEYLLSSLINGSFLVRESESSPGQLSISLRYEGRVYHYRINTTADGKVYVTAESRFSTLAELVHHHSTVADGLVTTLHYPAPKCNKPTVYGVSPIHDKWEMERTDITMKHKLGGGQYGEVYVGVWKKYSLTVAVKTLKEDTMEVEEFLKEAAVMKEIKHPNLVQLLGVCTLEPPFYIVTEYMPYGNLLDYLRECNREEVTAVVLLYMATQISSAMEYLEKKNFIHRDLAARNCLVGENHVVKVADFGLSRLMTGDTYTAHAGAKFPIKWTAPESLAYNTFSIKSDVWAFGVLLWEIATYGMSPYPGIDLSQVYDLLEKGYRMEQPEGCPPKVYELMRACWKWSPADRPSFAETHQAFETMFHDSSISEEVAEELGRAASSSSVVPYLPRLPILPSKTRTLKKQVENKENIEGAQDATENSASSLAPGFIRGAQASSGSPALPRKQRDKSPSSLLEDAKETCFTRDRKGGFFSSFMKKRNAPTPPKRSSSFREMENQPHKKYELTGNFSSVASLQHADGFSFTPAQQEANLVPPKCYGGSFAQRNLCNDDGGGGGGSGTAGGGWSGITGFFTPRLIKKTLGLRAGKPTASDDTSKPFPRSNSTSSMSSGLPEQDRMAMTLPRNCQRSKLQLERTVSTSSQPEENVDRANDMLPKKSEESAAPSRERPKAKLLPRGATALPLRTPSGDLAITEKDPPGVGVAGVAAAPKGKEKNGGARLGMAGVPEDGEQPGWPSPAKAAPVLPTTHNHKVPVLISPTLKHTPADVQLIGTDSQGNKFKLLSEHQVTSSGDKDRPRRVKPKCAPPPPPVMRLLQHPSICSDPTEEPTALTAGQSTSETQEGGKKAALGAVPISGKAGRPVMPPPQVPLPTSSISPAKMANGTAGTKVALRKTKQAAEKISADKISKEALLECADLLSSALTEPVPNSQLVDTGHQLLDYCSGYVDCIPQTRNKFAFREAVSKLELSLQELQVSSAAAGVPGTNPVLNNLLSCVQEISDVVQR"}, "[3]": {"target": "AXL (human) (UniProt P30530)"}, "[4]": {"target": "BLK (human) (UniProt P51451)"}, "[5]": {"target": "BMPR1B (human) (UniProt O00238)", "sequence (O00238 whole entry, looked up)": "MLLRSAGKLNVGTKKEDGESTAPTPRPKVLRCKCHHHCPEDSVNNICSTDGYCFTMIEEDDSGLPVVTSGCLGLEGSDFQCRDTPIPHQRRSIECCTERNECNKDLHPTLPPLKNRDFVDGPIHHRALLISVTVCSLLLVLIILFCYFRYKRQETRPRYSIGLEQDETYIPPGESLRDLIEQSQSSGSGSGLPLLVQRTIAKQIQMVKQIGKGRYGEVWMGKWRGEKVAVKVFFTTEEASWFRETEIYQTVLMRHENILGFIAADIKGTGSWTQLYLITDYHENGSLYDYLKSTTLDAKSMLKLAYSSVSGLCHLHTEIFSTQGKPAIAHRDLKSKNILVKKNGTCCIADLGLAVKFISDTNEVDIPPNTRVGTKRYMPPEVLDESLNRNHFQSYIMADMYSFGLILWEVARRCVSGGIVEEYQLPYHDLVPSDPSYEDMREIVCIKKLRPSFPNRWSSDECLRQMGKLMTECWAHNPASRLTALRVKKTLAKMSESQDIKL"}, "[6]": {"target": "BRSK2 (human) (UniProt Q8IWQ3)", "sequence (Q8IWQ3 whole entry, looked up)": "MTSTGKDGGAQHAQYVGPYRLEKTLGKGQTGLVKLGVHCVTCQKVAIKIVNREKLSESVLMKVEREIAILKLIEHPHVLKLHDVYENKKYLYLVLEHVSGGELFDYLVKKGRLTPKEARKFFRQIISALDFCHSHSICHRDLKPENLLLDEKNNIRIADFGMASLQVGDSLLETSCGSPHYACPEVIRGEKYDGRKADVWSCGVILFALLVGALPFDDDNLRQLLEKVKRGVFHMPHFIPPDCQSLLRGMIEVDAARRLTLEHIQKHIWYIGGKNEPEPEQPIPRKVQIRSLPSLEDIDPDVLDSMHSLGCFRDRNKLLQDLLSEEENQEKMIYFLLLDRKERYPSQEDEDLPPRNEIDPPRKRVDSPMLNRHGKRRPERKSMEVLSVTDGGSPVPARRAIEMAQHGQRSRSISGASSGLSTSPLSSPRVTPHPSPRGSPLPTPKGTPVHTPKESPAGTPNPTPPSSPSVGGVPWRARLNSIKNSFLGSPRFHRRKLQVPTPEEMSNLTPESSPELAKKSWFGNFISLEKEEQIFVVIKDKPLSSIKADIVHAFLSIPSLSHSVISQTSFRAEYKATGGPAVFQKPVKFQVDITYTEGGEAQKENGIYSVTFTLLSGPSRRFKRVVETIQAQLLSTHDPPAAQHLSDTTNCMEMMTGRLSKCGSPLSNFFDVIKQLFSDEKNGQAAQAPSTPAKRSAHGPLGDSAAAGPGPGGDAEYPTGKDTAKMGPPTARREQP"}, "[7]": {"target": "CDK9 (human) (UniProt P50750)"}, "[8]": {"target": "CIT (human) (UniProt O14578)"}, "[9]": {"target": "CLK3 (human) (UniProt P49761)"}, "[10]": {"target": "EPHA3 (human) (UniProt P29320)", "sequence (P29320 whole entry, looked up)": "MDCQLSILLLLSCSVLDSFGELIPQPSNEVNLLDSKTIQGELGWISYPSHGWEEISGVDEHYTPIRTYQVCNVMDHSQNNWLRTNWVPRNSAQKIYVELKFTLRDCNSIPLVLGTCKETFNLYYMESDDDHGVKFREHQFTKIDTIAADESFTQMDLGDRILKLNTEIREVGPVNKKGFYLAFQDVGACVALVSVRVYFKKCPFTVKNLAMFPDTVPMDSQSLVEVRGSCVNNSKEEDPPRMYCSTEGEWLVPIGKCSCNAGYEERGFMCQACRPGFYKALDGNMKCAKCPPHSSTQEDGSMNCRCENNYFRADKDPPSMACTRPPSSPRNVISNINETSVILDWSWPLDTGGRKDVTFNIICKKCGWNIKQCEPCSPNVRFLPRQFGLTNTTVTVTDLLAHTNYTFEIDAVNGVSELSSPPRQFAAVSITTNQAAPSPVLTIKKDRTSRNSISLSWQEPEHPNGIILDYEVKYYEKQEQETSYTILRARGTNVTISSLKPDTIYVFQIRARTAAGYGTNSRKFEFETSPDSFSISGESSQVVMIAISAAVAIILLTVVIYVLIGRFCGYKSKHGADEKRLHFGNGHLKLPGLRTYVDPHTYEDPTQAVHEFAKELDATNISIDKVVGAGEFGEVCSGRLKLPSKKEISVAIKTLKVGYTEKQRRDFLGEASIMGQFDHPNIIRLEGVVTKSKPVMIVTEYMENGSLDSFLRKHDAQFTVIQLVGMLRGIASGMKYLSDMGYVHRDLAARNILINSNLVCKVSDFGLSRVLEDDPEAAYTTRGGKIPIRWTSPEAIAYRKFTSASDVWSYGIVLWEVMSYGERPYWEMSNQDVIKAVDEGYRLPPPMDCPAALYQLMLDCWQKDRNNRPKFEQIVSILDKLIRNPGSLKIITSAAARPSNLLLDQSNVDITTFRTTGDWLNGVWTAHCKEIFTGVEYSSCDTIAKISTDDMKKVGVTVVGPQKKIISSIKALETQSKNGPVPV"}, "[11]": {"target": "ERBB2 (human) (UniProt P04626)"}, "[12]": {"target": "GAK (human) (UniProt O14976)"}, "[13]": {"target": "HCK (human) (UniProt P08631)"}, "[14]": {"target": "INSRR (human) (UniProt P14616)"}, "[15]": {"target": "IRAK3 (human) (UniProt Q9Y616)"}, "[16]": {"target": "MAP2K2 (human) (UniProt P36507)"}, "[17]": {"target": "MAP4K4 (human) (UniProt O95819)"}, "[18]": {"target": "MAP4K5 (human) (UniProt Q9Y4K4)"}, "[19]": {"target": "MAPK9 (human) (UniProt P45984)"}, "[20]": {"target": "MINK1 (human) (UniProt Q8N4C8)"}, "[21]": {"target": "MYLK4 (human) (UniProt Q86YV6)"}, "[22]": {"target": "NTRK3 (human) (UniProt Q16288)"}, "[23]": {"target": "PAK7 (human) (UniProt Q9P286)", "sequence (Q9P286 whole entry, looked up)": "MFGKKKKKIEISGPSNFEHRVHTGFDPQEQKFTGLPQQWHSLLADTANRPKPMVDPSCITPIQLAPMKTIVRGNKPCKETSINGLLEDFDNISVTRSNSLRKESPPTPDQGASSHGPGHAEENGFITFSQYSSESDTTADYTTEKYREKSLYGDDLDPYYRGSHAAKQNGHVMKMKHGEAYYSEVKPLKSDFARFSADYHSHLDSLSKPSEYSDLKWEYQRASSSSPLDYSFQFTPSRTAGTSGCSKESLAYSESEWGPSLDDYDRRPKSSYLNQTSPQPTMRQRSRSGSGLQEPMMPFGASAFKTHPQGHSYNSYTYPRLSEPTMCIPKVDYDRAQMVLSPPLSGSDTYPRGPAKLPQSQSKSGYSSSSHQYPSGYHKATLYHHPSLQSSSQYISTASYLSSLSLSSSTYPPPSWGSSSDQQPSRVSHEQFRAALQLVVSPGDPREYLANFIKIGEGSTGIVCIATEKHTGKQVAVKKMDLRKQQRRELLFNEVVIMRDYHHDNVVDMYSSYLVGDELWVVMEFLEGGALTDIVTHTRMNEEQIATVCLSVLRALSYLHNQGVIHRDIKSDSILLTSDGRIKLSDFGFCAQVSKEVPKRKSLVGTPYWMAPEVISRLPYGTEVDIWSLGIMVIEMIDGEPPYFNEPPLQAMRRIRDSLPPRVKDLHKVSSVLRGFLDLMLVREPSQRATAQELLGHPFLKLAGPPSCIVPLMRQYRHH"}, "[24]": {"target": "PKN1 (human) (UniProt Q16512)"}, "[25]": {"target": "PRKCE (human) (UniProt Q02156)", "sequence (Q02156 whole entry, looked up)": "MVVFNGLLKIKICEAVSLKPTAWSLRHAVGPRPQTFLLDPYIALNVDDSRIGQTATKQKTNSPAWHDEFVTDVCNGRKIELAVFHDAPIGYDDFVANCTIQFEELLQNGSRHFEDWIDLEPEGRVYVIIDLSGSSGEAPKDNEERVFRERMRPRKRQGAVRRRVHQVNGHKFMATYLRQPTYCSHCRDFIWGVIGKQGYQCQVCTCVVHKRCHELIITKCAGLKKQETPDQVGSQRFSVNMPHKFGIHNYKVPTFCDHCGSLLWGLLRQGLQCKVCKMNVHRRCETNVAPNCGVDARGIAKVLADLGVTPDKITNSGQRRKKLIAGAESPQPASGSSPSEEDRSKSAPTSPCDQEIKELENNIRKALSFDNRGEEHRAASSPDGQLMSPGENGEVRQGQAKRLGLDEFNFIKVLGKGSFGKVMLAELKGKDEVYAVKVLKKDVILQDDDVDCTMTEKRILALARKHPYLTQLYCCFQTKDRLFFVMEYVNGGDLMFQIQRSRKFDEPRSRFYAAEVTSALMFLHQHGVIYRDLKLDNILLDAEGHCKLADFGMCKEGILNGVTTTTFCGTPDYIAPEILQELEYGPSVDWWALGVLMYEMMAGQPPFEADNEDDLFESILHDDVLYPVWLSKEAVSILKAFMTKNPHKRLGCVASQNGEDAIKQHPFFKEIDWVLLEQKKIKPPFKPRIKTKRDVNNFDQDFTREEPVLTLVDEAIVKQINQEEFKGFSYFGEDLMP"}, "[26]": {"target": "PRKCQ (human) (UniProt Q04759)"}, "[27]": {"target": "PRKD3 (human) (UniProt O94806)"}, "[28]": {"target": "PRKG2 (human) (UniProt Q13237)"}, "[29]": {"target": "PRKX (human) (UniProt P51817)"}, "[30]": {"target": "RPS6KA3 KD1 (human) (UniProt P51812)"}, "[31]": {"target": "SRC (human) (UniProt P12931)"}, "[32]": {"target": "SRMS (human) (UniProt Q9H3Y6)"}, "[33]": {"target": "SRPK2 (human) (UniProt P78362)"}, "[34]": {"target": "STK17B (human) (UniProt O94768)"}, "[35]": {"target": "STK24 (human) (UniProt Q9Y6E0)"}, "[36]": {"target": "STK33 (human) (UniProt Q9BYT3)"}, "[37]": {"target": "TEC (human) (UniProt P42680)"}, "[38]": {"target": "WEE2 (human) (UniProt P0C1S8)"}, "[39]": {"target": "YES1 (human) (UniProt P07947)"}, "[40]": {"target": "CSNK1G2 (human) (UniProt P78368)"}}, "data": [{"smiles": "CCOc1cc2ncc(C#N)c(Nc3ccc(OCc4ccccn4)c(Cl)c3)c2cc1NC(=O)/C=C/CN(C)C", "values": [{"measurement": "kinase still bound, per cent of control", "setting": "[1]", "value": 100, "unit": "%"}, {"measurement": "kinase still bound, per cent of control", "setting": "[2]", "value": 92, "unit": "%"}, {"measurement": "kinase still bound, per cent of control", "setting": "[3]", "value": 5.4, "unit": "%"}, {"measurement": "kinase still bound, per cent of control", "setting": "[4]", "value": 3, "unit": "%"}, {"measurement": "kinase still bound, per cent of control", "setting": "[5]", "value": 81, "unit": "%"}, {"measurement": "kinase still bound, per cent of control", "setting": "[6]", "value": 100, "unit": "%"}, {"measurement": "kinase still bound, per cent of control", "setting": "[7]", "value": 94, "unit": "%"}, {"measurement": "kinase still bound, per cent of control", "setting": "[8]", "value": 95, "unit": "%"}, {"measurement": "kinase still bound, per cent of control", "setting": "[9]", "value": 86, "unit": "%"}, {"measurement": "kinase still bound, per cent of control", "setting": "[10]", "value": 85, "unit": "%"}, {"measurement": "kinase still bound, per cent of control", "setting": "[11]", "value": 0, "unit": "%"}, {"measurement": "kinase still bound, per cent of control", "setting": "[12]", "value": 10, "unit": "%"}, {"measurement": "kinase still bound, per cent of control", "setting": "[13]", "value": 35, "unit": "%"}, {"measurement": "kinase still bound, per cent of control", "setting": "[14]", "value": 94, "unit": "%"}, {"measurement": "kinase still bound, per cent of control", "setting": "[15]", "value": 85, "unit": "%"}, {"measurement": "kinase still bound, per cent of control", "setting": "[16]", "value": 0.5, "unit": "%"}, {"measurement": "kinase still bound, per cent of control", "setting": "[17]", "value": 6.2, "unit": "%"}, {"measurement": "kinase still bound, per cent of control", "setting": "[18]", "value": 0.85, "unit": "%"}, {"measurement": "kinase still bound, per cent of control", "setting": "[19]", "value": 52, "unit": "%"}, {"measurement": "kinase still bound, per cent of control", "setting": "[20]", "value": 6.8, "unit": "%"}, {"measurement": "kinase still bound, per cent of control", "setting": "[21]", "value": 86, "unit": "%"}, {"measurement": "kinase still bound, per cent of control", "setting": "[22]", "value": 78, "unit": "%"}, {"measurement": "kinase still bound, per cent of control", "setting": "[23]", "value": 72, "unit": "%"}, {"measurement": "kinase still bound, per cent of control", "setting": "[24]", "value": 100, "unit": "%"}, {"measurement": "kinase still bound, per cent of control", "setting": "[25]", "value": 100, "unit": "%"}, {"measurement": "kinase still bound, per cent of control", "setting": "[26]", "value": 100, "unit": "%"}, {"measurement": "kinase still bound, per cent of control", "setting": "[27]", "value": 65, "unit": "%"}, {"measurement": "kinase still bound, per cent of control", "setting": "[28]", "value": 92, "unit": "%"}, {"measurement": "kinase still bound, per cent of control", "setting": "[29]", "value": 100, "unit": "%"}, {"measurement": "kinase still bound, per cent of control", "setting": "[30]", "value": 89, "unit": "%"}, {"measurement": "kinase still bound, per cent of control", "setting": "[31]", "value": 82, "unit": "%"}, {"measurement": "kinase still bound, per cent of control", "setting": "[32]", "value": 91, "unit": "%"}, {"measurement": "kinase still bound, per cent of control", "setting": "[33]", "value": 85, "unit": "%"}, {"measurement": "kinase still bound, per cent of control", "setting": "[34]", "value": 46, "unit": "%"}, {"measurement": "kinase still bound, per cent of control", "setting": "[35]", "value": 0.35, "unit": "%"}, {"measurement": "kinase still bound, per cent of control", "setting": "[36]", "value": 42, "unit": "%"}, {"measurement": "kinase still bound, per cent of control", "setting": "[37]", "value": 73, "unit": "%"}, {"measurement": "kinase still bound, per cent of control", "setting": "[38]", "value": 98, "unit": "%"}, {"measurement": "kinase still bound, per cent of control", "setting": "[39]", "value": 26, "unit": "%"}]}, {"smiles": "O=C(O)c1ccc(Nc2ncc3c(n2)-c2ccc(Cl)cc2C(c2c(F)cccc2F)=NC3)cc1", "values": [{"measurement": "kinase still bound, per cent of control", "setting": "[2]", "value": 30, "unit": "%"}, {"measurement": "kinase still bound, per cent of control", "setting": "[3]", "value": 4.4, "unit": "%"}, {"measurement": "kinase still bound, per cent of control", "setting": "[4]", "value": 0.7, "unit": "%"}, {"measurement": "kinase still bound, per cent of control", "setting": "[5]", "value": 86, "unit": "%"}, {"measurement": "kinase still bound, per cent of control", "setting": "[6]", "value": 100, "unit": "%"}, {"measurement": "kinase still bound, per cent of control", "setting": "[8]", "value": 37, "unit": "%"}, {"measurement": "kinase still bound, per cent of control", "setting": "[9]", "value": 14, "unit": "%"}, {"measurement": "kinase still bound, per cent of control", "setting": "[40]", "value": 66, "unit": "%"}, {"measurement": "kinase still bound, per cent of control", "setting": "[10]", "value": 15, "unit": "%"}, {"measurement": "kinase still bound, per cent of control", "setting": "[12]", "value": 49, "unit": "%"}, {"measurement": "kinase still bound, per cent of control", "setting": "[14]", "value": 100, "unit": "%"}, {"measurement": "kinase still bound, per cent of control", "setting": "[15]", "value": 15, "unit": "%"}, {"measurement": "kinase still bound, per cent of control", "setting": "[16]", "value": 99, "unit": "%"}, {"measurement": "kinase still bound, per cent of control", "setting": "[17]", "value": 86, "unit": "%"}, {"measurement": "kinase still bound, per cent of control", "setting": "[18]", "value": 96, "unit": "%"}, {"measurement": "kinase still bound, per cent of control", "setting": "[19]", "value": 57, "unit": "%"}, {"measurement": "kinase still bound, per cent of control", "setting": "[20]", "value": 100, "unit": "%"}, {"measurement": "kinase still bound, per cent of control", "setting": "[21]", "value": 89, "unit": "%"}, {"measurement": "kinase still bound, per cent of control", "setting": "[22]", "value": 65, "unit": "%"}, {"measurement": "kinase still bound, per cent of control", "setting": "[23]", "value": 93, "unit": "%"}, {"measurement": "kinase still bound, per cent of control", "setting": "[24]", "value": 83, "unit": "%"}, {"measurement": "kinase still bound, per cent of control", "setting": "[25]", "value": 72, "unit": "%"}, {"measurement": "kinase still bound, per cent of control", "setting": "[26]", "value": 98, "unit": "%"}, {"measurement": "kinase still bound, per cent of control", "setting": "[27]", "value": 96, "unit": "%"}, {"measurement": "kinase still bound, per cent of control", "setting": "[28]", "value": 96, "unit": "%"}, {"measurement": "kinase still bound, per cent of control", "setting": "[29]", "value": 75, "unit": "%"}, {"measurement": "kinase still bound, per cent of control", "setting": "[30]", "value": 28, "unit": "%"}, {"measurement": "kinase still bound, per cent of control", "setting": "[32]", "value": 54, "unit": "%"}, {"measurement": "kinase still bound, per cent of control", "setting": "[33]", "value": 80, "unit": "%"}, {"measurement": "kinase still bound, per cent of control", "setting": "[34]", "value": 8.6, "unit": "%"}, {"measurement": "kinase still bound, per cent of control", "setting": "[35]", "value": 76, "unit": "%"}, {"measurement": "kinase still bound, per cent of control", "setting": "[36]", "value": 100, "unit": "%"}, {"measurement": "kinase still bound, per cent of control", "setting": "[37]", "value": 2, "unit": "%"}, {"measurement": "kinase still bound, per cent of control", "setting": "[38]", "value": 89, "unit": "%"}, {"measurement": "kinase still bound, per cent of control", "setting": "[39]", "value": 3.9, "unit": "%"}]}]}
